Reference: patent publication US9539223B2, “Methods for treating bacterial infections” (Neoculi Pty Ltd., priority 2013, dated 2017)
Converted amounts (≈) assume the structure as drawn. “And” between values parts separate entries of the source, which are not always exact repeats. Identical values can stand only once.

Key:
[1] = system: Staphylococcus spp. Strain MK1; experiment: Checkerboard synergy study, Staphylococcus spp. MK1; format: cell-based; parameters: key to FIC1 (last-but-one column; FIC index of antibiotic + NCL812): FICI: <0.5 synergy, 0.5-4 no effect, >4 antagonism; conditions: Staphylococcus spp. Strain MK1
Description: (§1) Firstly, the MIC of each antibiotic alone was determined in accordance to CLSI standard guidelines.
(§2) According to the checkerboard guidelines, Synergy (S) was defined as an FICI<0.5. No effect (NE) was defined as 0.5<FICI<4. Antagonism (A) was defined as a 4<FICI.

S. aureus strain T3-29 = experiment: Checkerboard synergy study, S. aureus T3-29; format: cell-based, Staphylococcus aureus
Description: as §1, §2

S. aureus ATCC 29213 [2] = experiment: ATP release assay (CellTiter-Glo); format: cell-based, Staphylococcus aureus; conditions: 8-fold the MIC (256 μg/ml), 30 min exposure
From the text: The CellTiter-Glo Luminescent Cell Viability Assay (Promega) was utilized to measure the leakage of ATP from bacteria. […] The negative control received 2% DMSO, which represented the final DMSO concentration in each assay. […] Results were expressed as ATP concentration released to the medium (μM).

[3] = system: methicillin-resistant Staphylococcus aureus (MRSA); experiment: Minimum inhibitory concentration assay (CLSI), MRSA isolates; format: cell-based; conditions: ATCC control strains
Description: Minimum inhibitory concentration tests were performed according to CLSI Standards (CLSI 2008). […] The solutions were then serially diluted across the row, leaving 2 columns for positive and negative controls. A bacterial suspension was prepared by adding fresh colonies obtained from an overnight culture on Sheep Blood Agar (SBA) to a 9.1 g/L saline solution. This suspension was adjusted to a concentration of between 4×10^8 and 5×10^8 CFU/mL. Concentration of the suspension was determined by measuring optical density (OD) using a spectrophotometer at a wavelength of 600 nm where the correct concentration was determined to have an optical density of between 1.00 and 1.20. One milliliter of this suspension was added to 9 mL of saline before being added to all wells, excluding the negative control wells, in 10 μL volumes giving a final concentration of between 4×10^5 and 5×10^5 CFU/mL in each well. The tests were then incubated for 24 hours at 37° C. and then assessed both visually and using OD readings from a microplate reader at a wavelength of 600 nm. These tests were performed in duplicate but repeated if discrepancies were observed.
The minimum inhibitory concentration (MIC) was determined to be the lowest concentration of antibiotic that prevented growth of bacteria both visually and using OD readings.

[4] = system: methicillin-resistant and methicillin-susceptible Staphylococcus aureus; experiment: MIC by broth microdilution (CLSI), S. aureus clinical isolates; format: cell-based; conditions: positive control
Description: Microtiter plates containing two-fold dilutions of each antimicrobial agent were inoculated with ˜10^5-CFU/ml of each isolate in a 100-μl final volume. Plates were incubated for 24-h at 37° C. Turbidity (absorbance at OD600) was measured using a Bio-Rad Benchmark Plus microplate spectrophotometer in Microplate Manager® version 5.2.1 (Bio-Rad). Minimum inhibitory concentration (MIC) endpoints were defined as the lowest antimicrobial concentration assessed by the spectrophotometer that inhibited bacterial growth. ATCC 49775 was included in the isolate collection as a control organism using breakpoints defined by the CLSI. The MIC50, MIC90 (concentrations that inhibited growth of the lower 50% and 90% of total organisms, respectively), and MIC range (minimum and maximum) were calculated to profile the antimicrobial susceptibility of the isolate collection.

S. pneumoniae [5] = experiment: MIC by micro-broth dilution, pneumococcal isolates; format: cell-based, Streptococcus pneumoniae
Description: (§3) [Micro-broth dilutions and 96-well trays are prepared by the following method: 90 μL of 4% LHB: CAMHB is aliquotted into all wells using a multichannel pipette. 90 μl of working antimicrobial stocks were no serial diluted down the tray by a 1:2 dilution. Negative broth controls and dilution control were taken into account when planning the set up of a 96-well tray.] 10 μL of bacterial suspension was then added to the appropriate wells in the 96 well tray. Appropriate positive (no antimicrobial), negative (no antimicrobial or bacteria) and negative dilution (a serial dilution control of antimicrobial and broth) controls were included in each assay. […] The MBC was determined by a 99.95% inhibition of S. pneumoniae, taking into account the dilution factor. MICs and MBCs were determined in quadruplicate and the mode was taken as the representative value. The MIC50, MIC90 and MIC range and MBC50, MBC90 and MBC range were determined according to CLSI standards. The MIC50 and MIC90, or MBC50 and MBC90, are defined by the lowest concentrations which, when all the MICs and MBCs of the isolates are arranged from lowest to highest, inhibited the 50th and 90th percentile of the total amount of isolates, respectively.

S. pneumoniae [6] = experiment: MBC, pneumococcal isolates; format: cell-based, Streptococcus pneumoniae; conditions: isolate WCH16
Description: as §3

S. aureus ATCC 29213 [7] = experiment: MIC assay (CLSI M07-A8) in Mueller Hinton II Broth; format: cell-based, Staphylococcus aureus; conditions: S. aureus ATCC 29213, quality control agent
From the text: The MIC assay method followed the procedure described by the Clinical and Laboratory Standards Institute, or CLSI (Clinical and Laboratory Standards Institute). […] The medium employed for the MIC assay was Mueller Hinton II Broth (MHB II—Becton Dickinson, Sparks, Md.; Cat No 212322; Lot 9044411). S. aureus ATCC 29213 served as the quality control strain, and linezolid was utilized as the quality control antibiotic to validate the assay.

## CC1(C)S[C@@H]2[C@H](NC(=O)Cc3ccccc3)C(=O)N2[C@H]1C(=O)O [Penicillin G, penicillin G]
[1]
  Antibiotic MIC Alone: 0.125 µg/mL and 0.25 µg/mL
  Antibiotic MIC With NCL812: 0.062 µg/mL and 0.031 µg/mL
  FIC1 (last-but-one column; FIC index of antibiotic + NCL812): 1 and 0.625
  Result (interaction of antibiotic with NCL812): NE (No effect (NE) was defined as 0.5<FICI<4)

## CN(C)[C@@H]1C(O)=C(C(N)=O)C(=O)[C@@]2(O)C(O)=C3C(=O)c4c(O)cccc4[C@@](C)(O)[C@H]3C[C@@H]12 [Tetracycline, tetracycline]
S. aureus strain T3-29
  FIC1 (last-but-one column; FIC index of antibiotic + NCL812): 0.75 and 0.62
  Result (interaction of antibiotic with NCL812): NE (No effect (NE) was defined as 0.5<FICI<4)

## Cc1cc(NS(=O)(=O)c2ccc(N)cc2)no1 [Sulfamethoxazole, sulfamethoxazole]
[1]
  Antibiotic MIC Alone: 8 µg/mL
  Antibiotic MIC With NCL812: 4 µg/mL
  FIC1 (last-but-one column; FIC index of antibiotic + NCL812): 0.75 and 1
  FIC1 = MIC of antibiotic in combination with NCL812/MIC of antibiotic alone: 0.5
  Result (interaction of antibiotic with NCL812): NE (No effect (NE) was defined as 0.5<FICI<4)

## polymyxin B [reference compound]
S. aureus ATCC 29213 [2]
  maximal release of ATP: approximately 0.34 μM

## CC1(C)S[C@@H]2[C@H](NC(=O)[C@H](N)c3ccccc3)C(=O)N2[C@H]1C(=O)O [Ampicillin]
[3]
  MIC values against CLSI recommendations: within the normal range expected
[4]
  MIC values against CLSI guidelines: within the normal range expected
S. pneumoniae [5]; 20 S. pneumoniae strains
  MIC Range: 0.011 to 0.09 µg/mL
S. pneumoniae [5]; Streptococcus pneumoniae
  MIC: 0.023 µg/mL (≈ 0.0658 µM)
  MIC50: 0.023 µg/mL (≈ 0.0658 µM)
  MIC90: 0.023 µg/mL (≈ 0.0658 µM)
S. pneumoniae [5]; isolate EF3030
  MIC: 0.023
S. pneumoniae [5]; isolate WCH184
  MIC: 0.045
S. pneumoniae [6]
  MBC: Autolysis
S. aureus strain T3-29
  Result (interaction of antibiotic with NCL812): NE (No effect (NE) was defined as 0.5<FICI<4)

## O=C(O)c1cn(C2CC2)c2cc(N3CCNCC3)c(F)cc2c1=O [Ciprofloxacin, ciprofloxacin]
[1]
  Antibiotic MIC Alone: 0.125 µg/mL and 0.25 µg/mL
  FIC1 (last-but-one column; FIC index of antibiotic + NCL812): 0.75 and 0.525 and 0.625 and 0.562
  Result (interaction of antibiotic with NCL812): NE (No effect (NE) was defined as 0.5<FICI<4)

## gentamicin
[1]
  Antibiotic MIC Alone: 1 µg/mL and 0.5 µg/mL
  Result (interaction of antibiotic with NCL812): NE (No effect (NE) was defined as 0.5<FICI<4)

## CC(=O)NC[C@H]1CN(c2ccc(N3CCOCC3)c(F)c2)C(=O)O1 [Linezolid, linezolid]
S. aureus ATCC 29213 [7]
  MIC against CLSI quality control range: within the CLSI-established quality control range

## O=C(N[C@H](CO)[C@H](O)c1ccc([N+](=O)[O-])cc1)C(Cl)Cl [Chloramphenicol, chloramphenicol]
S. aureus strain T3-29
  FIC1 (last-but-one column; FIC index of antibiotic + NCL812): 0.75
  Result (interaction of antibiotic with NCL812): NE (No effect (NE) was defined as 0.5<FICI<4)

## CC[C@H]1OC(=O)[C@H](C)[C@@H](O[C@H]2C[C@@](C)(OC)[C@@H](O)[C@H](C)O2)[C@H](C)[C@@H](O[C@@H]2O[C@H](C)C[C@H](N(C)C)[C@H]2O)[C@](C)(O)C[C@@H](C)C(=O)[C@H](C)[C@@H](O)[C@]1(C)O [Erythromycin, erythromycin]
S. pneumoniae [5]; Streptococcus pneumoniae
  MIC: 0.00275 µg/mL (≈ 0.00375 µM)
S. aureus strain T3-29
  Result (interaction of antibiotic with NCL812): NE (No effect (NE) was defined as 0.5<FICI<4)
